# Data reported in US20230106943A1, “ENGINEERED ANTIMICROBIAL PEPTIDES AND USAGE THEREOF” (Peptilogics, Inc., priority 2021, published 2023).
# No end group written: not given here.
# Experiments:
# [1] = Example 4 stability of concentrated solutions: UV-Vis Assay (method 78933); type: physicochemical
# Method: (§1) The peptide formulation of SEQ ID NO: 1 dissolved in a saline solution with a pH of 5.0±0.1 was tested for stability under either −20° C. or 40° C. with 75% relative humidity (RH). […]
# [2] = Example 4 stability of concentrated solutions: Osmolality (method 69153); type: physicochemical
# Method: as §1
# [3] = Example 7 stability of 1 mg/mL SEQ ID NO: 1 solutions at pH 4-7, HPLC % area over storage; type: physicochemical
# Method: SEQ ID NO: 1 was dissolved in sterile water for injection resulting solutions at a concentration of 1 mg/mL and pH adjusting agents were added to achieve a pH value in the range of 4-7. The pH adjusting chosen were acetate and sodium hydroxide and citric acid (for pH 4). Each of the solutions were filtered through a 0.45 um filter and samples were stored in 1 mL aliquots at 40° C., room temperature (approximately 20° C.), refrigerated conditions (5° C.), and frozen at −20° C. Samples were withdrawn at regular intervals (t=0, and Days 2, 7, 14, and 28) and analyzed by HPLC to determine if chemical degradation of the peptide could be detected in any samples. Degradation rates between samples of each pH were also analyzed.
# [4] = 15.3 mg/mL solution, 40° C. and 75% RH, 1 Month
# [5] = 15.3 mg/mL solution, 40° C. and 75% RH, 2 Month
# [6] = 15.3 mg/mL solution, 40° C. and 75% RH, 3 Month
# [7] = 15.3 mg/mL solution, 40° C. and 75% RH, 6 Month
# [8] = 15.3 mg/mL solution, −20° C., 0 Month
# [9] = 15.3 mg/mL solution, −20° C., 1 Month
# [10] = 15.3 mg/mL solution, −20° C., 2 Month
# [11] = 15.3 mg/mL solution, −20° C., 3 Month
# [12] = 15.3 mg/mL solution, −20° C., 6 Month
# [13] = 15.3 mg/mL solution, −20° C., 9 Month
# [14] = 36.7 mg/mL solution, 40° C. and 75% RH, 1 Month
# [15] = 36.7 mg/mL solution, 40° C. and 75% RH, 2 Month
# [16] = 36.7 mg/mL solution, 40° C. and 75% RH, 3 Month
# [17] = 36.7 mg/mL solution, 40° C. and 75% RH, 6 Month
# [18] = 36.7 mg/mL solution, −20° C., 0 Month
# [19] = 36.7 mg/mL solution, −20° C., 1 Month
# [20] = 36.7 mg/mL solution, −20° C., 2 Month
# [21] = 36.7 mg/mL solution, −20° C., 3 Month
# [22] = 36.7 mg/mL solution, −20° C., 6 Month
# [23] = 36.7 mg/mL solution, −20° C., 9 Month
# [24] = 72.4 mg/mL solution, 40° C. and 75% RH, 1 Month
# [25] = 72.4 mg/mL solution, 40° C. and 75% RH, 2 Month
# [26] = 72.4 mg/mL solution, 40° C. and 75% RH, 3 Month
# [27] = 72.4 mg/mL solution, 40° C. and 75% RH, 6 Month
# [28] = 72.4 mg/mL solution, −20° C., 0 Month
# [29] = 72.4 mg/mL solution, −20° C., 1 Month
# [30] = 72.4 mg/mL solution, −20° C., 2 Month
# [31] = 72.4 mg/mL solution, −20° C., 3 Month
# [32] = 72.4 mg/mL solution, −20° C., 6 Month
# [33] = 72.4 mg/mL solution, −20° C., 9 Month
# [34] = 81.4 mg/mL solution, −20° C., 0 Month
substance,measurement,setting,value
RRWVRRVRRVWRRVVRVVRRWVRR-NH2 [SEQ ID NO: 1],UV-Vis Assay,[1]; [4],102.0%
same,UV-Vis Assay,[1]; [5],102.2%
same,UV-Vis Assay,[1]; [6],103.9%
same,UV-Vis Assay,[1]; [7],102.5%
same,UV-Vis Assay,[1]; [8],102.0%
same,UV-Vis Assay,[1]; [9],101.5%
same,UV-Vis Assay,[1]; [10],104.0%
same,UV-Vis Assay,[1]; [11],105.1%
same,UV-Vis Assay,[1]; [12],103.9%
same,UV-Vis Assay,[1]; [13],103.1%
same,UV-Vis Assay,[1]; [14],100.3%
same,UV-Vis Assay,[1]; [15],101.3%
same,UV-Vis Assay,[1]; [16],99.2%
same,UV-Vis Assay,[1]; [17],100.1%
same,UV-Vis Assay,[1]; [18],98.1%
same,UV-Vis Assay,[1]; [19],100.0%
same,UV-Vis Assay,[1]; [20],100.6%
same,UV-Vis Assay,[1]; [21],101.7%
same,UV-Vis Assay,[1]; [22],99.5%
same,UV-Vis Assay,[1]; [23],100.3%
same,UV-Vis Assay,[1]; [24],97.8%
same,UV-Vis Assay,[1]; [25],98.6%
same,UV-Vis Assay,[1]; [26],93.4%
same,UV-Vis Assay,[1]; [27],95.4%
same,UV-Vis Assay,[1]; [28],90.1%
same,UV-Vis Assay,[1]; [29],97.6%
same,UV-Vis Assay,[1]; [30],98.2%
same,UV-Vis Assay,[1]; [31],94.5%
same,UV-Vis Assay,[1]; [32],97.0%
same,UV-Vis Assay,[1]; [33],99.0%
same,UV-Vis Assay,[1]; [34],105.0 % LC
same,Osmolality,[2]; [4],Average Reading: 82 mOsmol/kg
same,Osmolality,[2]; [5],Average Reading: 83 mOsmol/kg
same,Osmolality,[2]; [6],Average Reading: 80 mOsmol/kg
same,Osmolality,[2]; [7],85 mOsmol/kg
same,Osmolality,[2]; [8],Average Reading: 82 mOsmol/kg
same,Osmolality,[2]; [9],Average Reading: 82 mOsmol/kg
same,Osmolality,[2]; [10],Average Reading: 82 mOsmol/kg
same,Osmolality,[2]; [11],Average Reading: 82 mOsmol/kg
same,Osmolality,[2]; [12],84 mOsmol/kg
same,Osmolality,[2]; [13],83 mOsmol/kg
same,Osmolality Average Reading,[2]; [14],Average Reading: 188 mOsmol/kg
same,Osmolality Average Reading,[2]; [15],Average Reading: 189 mOsmol/kg
same,Osmolality Average Reading,[2]; [16],Average Reading: 191 mOsmol/kg
same,Osmolality,[2]; [17],193 mOsmol/kg
same,Osmolality,[2]; [18],Average Reading: 190 mOsmol/kg
same,Osmolality,[2]; [19],Average Reading: 188 mOsmol/kg
same,Osmolality,[2]; [20],Average Reading: 190 mOsmol/kg
same,Osmolality,[2]; [21],Average Reading: 193 mOsmol/kg
same,Osmolality,[2]; [22],190 mOsmol/kg
same,Osmolality,[2]; [23],190 mOsmol/kg
same,Osmolality Average Reading,[2]; [24],Average Reading: 374 mOsmol/kg
same,Osmolality Average Reading,[2]; [25],Average Reading: 379 mOsmol/kg
same,Osmolality Average Reading,[2]; [26],Average Reading: 371 mOsmol/kg
same,Osmolality,[2]; [27],194 mOsmol/kg
same,Osmolality Average Reading,[2]; [28],Average Reading: 371 mOsmol/kg
same,Osmolality Average Reading,[2]; [29],Average Reading: 374 mOsmol/kg
same,Osmolality Average Reading,[2]; [30],Average Reading: 376 mOsmol/kg
same,Osmolality Average Reading,[2]; [31],Average Reading: 374 mOsmol/kg
same,Osmolality,[2]; [32],195 mOsmol/kg
same,Osmolality,[2]; [33],375 mOsmol/kg
same,Osmolality,"[2]; 81.4 mg/mL solution, 40° C. and 75% RH, 1 Month",489 mOsm/kg
same,Osmolality,"[2]; 81.4 mg/mL solution, 40° C. and 75% RH, 2 Month",491 mOsm/kg
same,Osmolality,"[2]; 81.4 mg/mL solution, 40° C. and 75% RH, 3 Month",492 mOsm/kg
same,Osmolality,[2]; [34],485 mOsm/kg
same,Osmolality,"[2]; 81.4 mg/mL solution, −20° C., 1 Month",489 mOsm/kg
same,Osmolality,"[2]; 81.4 mg/mL solution, −20° C., 2 Month",488 mOsm/kg
same,Osmolality,"[2]; 81.4 mg/mL solution, −20° C., 3 Month",486 mOsm/kg
same,pKa,,~12.5
same,impurity change by HPLC % area,"[3]; pH 4-7 samples, after 7 days of storage at 40° C.",no significant evidence of impurity increase
same,overall stability as a function of pH,[3]; pH 4 and pH 5 made with acetic acid,maximum stability
same,impurity change by HPLC % area,"[3]; prepared at pH 4 with citrate, after 27 days of storage at 40° C.",increase in impurities
same,impurity change by HPLC % area,"[3]; prepared at pH 7, after 27 days of storage at 40° C.",increase in impurities
